Data taken from patent US20060183889A1, “Alkyl phosphine detergent products and extraction processes” (priority 2005, published 2006).
Peptide text beside a SMILES is read from it.

What was measured:
[1] = cited from earlier work
[2] = system: uninduced BL21 Star cells; test: Screening of detergents: lysis of uninduced cell cultures analysed by PAGE; format: cell-based, E. coli; details: for lysis of uninduced BL21 Star cells by PAGE (FIG. 1) / lysis capabilities by PAGE (FIG. 2) / lysis performance: 1% detergent in 50 mM phosphate; for lysis of uninduced BL21 Star cells by PAGE (FIG. 1) / lysis performance: 300 mM NaCl pH 7; for lysis capabilities by PAGE (FIG. 2): 300 mM NaCl pH=7, alkyl chain length 9-11; for lysis performance: compared with BugBuster; for lysis of bacterial cells: 1% detergent in 50 mM phosphate pH 7, uninduced cell cultures, compared with BugBuster and B-Per
Procedure: (§1) Cultures were grown to OD600=1.2-1.5 and then collected for lysis. One ml of culture was subjected to centrifugation (10,000×g) and lysed in 75 to 100 μl of each lysis buffer depending on optical density (OD). In some samples 10 μl of 1:100 dilution of BENZONASE® nuclease (Benzon Pharma A/S) and 10 μl of 0.5 mg/ml Lysozyme were added. Samples were allowed to incubate at room temperature for approximately 10 minutes, then spun down at 10,000×g. Supernatant was pipetted and used for subsequent activity assays and SDS-PAGE analysis. For BL21 (DE3) pLysS cultures, 2 independent lysates of each culture with and without lysozyme were prepared and tested.
(§2) For gel electrophoresis, 15 μL of each lysate was incubated with 5 μl of 4× LDS Sample buffer and 2 μl of NuPage Reducing reagent in a 70° C. heat block for 10 minutes. 5 μl of the samples were run on 4-12% NuPAGE gels (Invitrogen cat # NP0321 or NP0323) with MES SDS running buffer. SDS-PAGE gels were stained with SimplyBlue Safe Stain (Invitrogen cat# LC6065).
Screening of a wide range of detergents was performed by evaluating the lysis of uninduced cell cultures. For the first round of screening, detergents from different chemical groups were evaluated starting with some well-known detergents such as Triton X-100, Elugent, NP-7, NP-40. The lysis buffers were prepared at 1% detergent concentration in 50 mM phosphate pH 7. The detergents were compared with known lysis procedures using BugBuster® lysis reagent (Novagen), B-Per™ protein extraction reagent (Pierce), Relay 96 Protein Screen (Invitrogen), and sonication.
Other types of detergents also screened were ASB-C8 and three other synthesized sulfobetaine detergents: SB-A, SB-B, and SB-C, as well as APO-8, APO-10, APO-12 and N-dodecanoyl sucrose as 1% detergent solutions in 50 mM phosphate, 300 mM NaCl pH 7) using BL21 Star cells. […] Lane 1 is a Mark 12 Molecular Weight Standard; lane 2 is a 1% SB-A lysis solution; lane 3 is a 1% ASB-C8 lysis solution; lane 4 is a 1% SB-B lysis solution; lane 5 is a 1% SB-C lysis solution; lane 6 is a 1% APO-8 lysis solution; lane 7 is a 1% APO-10 lysis solution; lane 8 is a 1% APO-12 lysis solution; lane 9 is a 1% N-Dodecanoyl Sucrose lysis solution and lane 10 is BugBuster® HT lysis reagent. […] It is likely that the length of the alkyl chain is critical for the lysis ability of the detergent. Therefore, another round of testing was performed with detergents of the same type with alkyl chains one […] smaller and bigger than APO-10. […] One percent detergent formulations were prepared in 50 mM phosphate, 300 mM NaCl pH=7. In FIG. 2, Lane 1 is a Mark 12 Molecular Weight Standard; lane 2 is BugBuster® HT; lane 3 is a 1% APO-9 lysis solution; lane 4 is a 1% APO-10 lysis solution and lane 5 is a 1% APO-11 lysis solution.

[3] = system: BL-21-AI, BL-21-Star, BL-21 DE3; test: Side by side comparison of alkylglucoside and alkylphosphine detergents as lysis reagents; format: cell-based, E. coli; details: several cell types: BL-21-AI
Procedure: as §1, §2
Side by side comparison testing was performed of the alkylglucoside and alkylphosphine detergents with several different cell types: BL-21-AI, BL-21-Star, BL-21 DE3. In this comparison testing BugBuster® HT lysis reagent (Novagen), B-Per™ protein extraction reagent (Pierce), n-octyl-β-D-glucopyranoside, n-nonyl-β-D-glucopyranoside, and n-octyl-β-D-thioglucopyranoside, APO-9 and APO-10 were utilized. […] Further optimization and testing was concentrated on the use of APO detergents by themselves and in combination with other detergents.

BL21 Star cultures = test: MBP extraction evaluated qualitatively by SDS PAGE; format: cell-based, E. coli; details: qualitative
Procedure: (§3) E. coli strain BL21 cells were transformed with plasmids expressing β-galactosidase, green fluorescent protein (GFP) or maltose binding protein (MBP) as follows. BL21-AI were transformed with pET 100 expressing n-terminal 6×His tagged GFP or n-terminally 6×His tagged LacZ (β-galactosidase). The cells were grown at 37° C. to OD600=0.4-0.5 and then induced with 1 mM IPTG and 0.1% arabinose. The expression was performed for 2-4 hours at 37° C. BL21 Star cells were transformed with plasmid expressing MBP. The cells were grown at 37° C. to OD600=0.4-0.5 and then induced with 1 mM IPTG. Protein expression was performed at 30° C. for 2-4 hours. BL-21(DE3) and BL-21(DE3)pLysS cells were transformed with vector expressing N-terminally 6×His tagged LacZ (β-galactosidase) (pET 100 lacZ-IVGN cat# K100-01), N-terminal Lumio tag (Cys-Cys-Pro-Gly-Cys-Cys) and 6×His tagged Lac-Z (pET 160 LacZ), and N-terminal Lumio tag (Cys-Cys-Pro-Gly-Cys-Cys) and 6×His tagged GFP (pET 160 GFP). […]
Following preliminary screening, more detailed testing was performed using GFP, β-galactosidase and MBP expressed in E. coli. […] The activity of the β-galactosidase was measured using the β-galactosidase activity kit (Invitrogen) as described above. The GFP activity (native state) was tested by measuring the fluorescence of the protein as described above. MBP extraction was evaluated qualitatively by SDS PAGE gel electrophoresis.

[4] = system: BL21- AI cells expressing β-galactosidase; test: Lysis of cells expressing β-galactosidase, β-galactosidase activity of lysate; format: cell-based, E. coli; details: 0.5% APO detergent formulation; lysozyme in the lysis buffer
Procedure: as §3, with “hours.” for “hours. BL-21(DE3) and BL-21(DE3)pLysS cells were transformed with vector expressing N-terminally 6×His tagged LacZ (β-galactosidase) (pET 100 lacZ-IVGN cat# K100-01), N-terminal Lumio tag (Cys-Cys-Pro-Gly-Cys-Cys) and 6×His tagged Lac-Z (pET 160 LacZ), and N-terminal Lumio tag (Cys-Cys-Pro-Gly-Cys-Cys) and 6×His tagged GFP (pET 160 GFP).”
(§4) GFP activity was determined by reading fluorescence (Excitation at 395/Emission […]) of lysates (diluted 1:20 or 1:40 in 50 mM Phosphate pH 7). The raw data was recorded. LacZ activity was determined by using the β-galactosidase assay kit (IVGN cat # K1455-01). The lysate samples were diluted 1:100 and then analyzed as described in the kit manual. Results were obtained using OD420 readings in the following equation: nmoles of ONPG hydrolyzed/μL lysate=(OD420background) (1.92×10^5 nl)(dilution factor=100) (4500 nl/nmoles-cm)×(1 cm) Data was normalized to the reading received from a control sample prepared with BugBuster® or BugBuster® HT (Novagen) lysis reagents. […]

[5] = system: BL21-AI cells expressing GFP; test: Lysis of cells expressing GFP, fluorescence of lysate; format: cell-based, E. coli; details: 0.5% in 50 mM Tris pH=7; normalized to BugBuster; average of multiple treatments
Procedure: as §3, with “hours.” for “hours. BL-21(DE3) and BL-21(DE3)pLysS cells were transformed with vector expressing N-terminally 6×His tagged LacZ (β-galactosidase) (pET 100 lacZ-IVGN cat# K100-01), N-terminal Lumio tag (Cys-Cys-Pro-Gly-Cys-Cys) and 6×His tagged Lac-Z (pET 160 LacZ), and N-terminal Lumio tag (Cys-Cys-Pro-Gly-Cys-Cys) and 6×His tagged GFP (pET 160 GFP).”
as §4

Compound: NC(=O)CN(CC(=O)O)CC(=O)O [ADA]
- pKa(4° C.) [1]: 6.80
- pKa(20° C.) [1]: 6.60
- pKa(37° C.) [1]: 6.43
- Temperature Coefficient (↑pKa/° C.) [1]: 0.011 ↑pKa/° C.

Compound: CCCCCCCCP(C)(C)=O [APO-8, Dimethyloctylphosphine oxide]
- lysis of uninduced BL21 Star cells by PAGE (FIG. 1) [2]: did not lyse the cells efficiently

Compound: CCCCCCCCCP(C)(C)=O [APO-9, Dimethylnonylphosphine oxide]
- lysis capabilities by PAGE (FIG. 2) [2]: optimal lysis capabilities
- performance as lysis reagent [3]: performed well

Compound: CCCCCCCCCCP(C)(C)=O [APO-10, Dimethyldecylphosphine oxide]
- lysis of uninduced BL21 Star cells by PAGE (FIG. 1) [2]: performed very well
- lysis capabilities by PAGE (FIG. 2) [2]: optimal lysis capabilities
- performance as lysis reagent [3]: performed well
- MBP extraction (BL21 Star cultures): similarly or slightly better
- difference of β-galactosidase extraction performance from the BPER-2 reagent (FIG. 4) [4]: ≤ 5%
- difference of GFP fluorescence result from the BugBuster reagent (FIG. 3) [5]: ≤ 7%

Compound: CCCCCCCCCCCCP(C)(C)=O [APO-12, Dimethyldodecylphosphine oxide]
- lysis of uninduced BL21 Star cells by PAGE (FIG. 1) [2]: did not lyse the cells efficiently

Compound: O=S(=O)(O)CCN(CCO)CCO [BES]
- pKa(4° C.) [1]: 7.41
- pKa(20° C.) [1]: 7.5
- pKa(37° C.) [1]: 6.88
- Temperature Coefficient (↑pKa/° C.) [1]: 0.016 ↑pKa/° C.

Compound: O=C(O)CN(CCO)CCO [Bicine]
- pKa(4° C.) [1]: 8.64
- pKa(37° C.) [1]: 8.04
- Temperature Coefficient (↑pKa/° C.) [1]: 0.018 ↑pKa/° C.

Compound: Cl.NCC(N)=O [Glycinamide HCL]
- pKa(4° C.) [1]: 8.66
- pKa(20° C.) [1]: 8.20
- pKa(37° C.) [1]: 7.71
- Temperature Coefficient (↑pKa/° C.) [1]: 0.029 ↑pKa/° C.

Compound: NCC(=O)NCC(=O)O [Glycylglycine] (H-Gly-Gly-OH)
- pKa(4° C.) [1]: 8.85
- pKa(37° C.) [1]: 7.92
- Temperature Coefficient (↑pKa/° C.) [1]: 0.028 ↑pKa/° C.

Compound: O=S(=O)(O)CCCN1CCN(CCO)CC1 [HEPPS]
- pKa(4° C.) [1]: 8.18
- pKa(20° C.) [1]: 8.00
- pKa(37° C.) [1]: 7.81
- Temperature Coefficient (↑pKa/° C.) [1]: 0.011 ↑pKa/° C.

Compound: O=S(=O)(O)CCNC(CO)(CO)CO [TES]
- pKa(4° C.) [1]: 7.82
- pKa(20° C.) [1]: 7.50
- pKa(37° C.) [1]: 7.16
- Temperature Coefficient (↑pKa/° C.) [1]: 0.020 ↑pKa/° C.

Compound: O=C(O)CNC(CO)(CO)CO [TRICINE]
- pKa(4° C.) [1]: 8.49
- pKa(37° C.) [1]: 7.79
- Temperature Coefficient (↑pKa/° C.) [1]: 0.021 ↑pKa/° C.

Compound: CCCCCCCCCCCCO[C@@H]1O[C@H](CO)[C@@H](O[C@H]2O[C@H](CO)[C@@H](O)[C@H](O)[C@H]2O)[C@H](O)[C@H]1O [n-dodecyl-β-D-maldoside]
- lysis performance [2]: good lysis performance

Compound: CCCCCCCCCO[C@@H]1O[C@H](CO)[C@@H](O)[C@H](O)[C@H]1O [n-nonyl-β-D-glucopyranoside]
- lysis performance [2]: good lysis performance
- performance as lysis reagent [3]: performed well

Compound: CCCCCCCCO[C@@H]1O[C@H](CO)[C@@H](O)[C@H](O)[C@H]1O [n-octyl-β-D-glucopyranoside]
- lysis performance [2]: good lysis performance
- performance as lysis reagent [3]: performed well
- MBP extraction (BL21 Star cultures): comparable

Compound: CCCCCCCCS[C@@H]1O[C@H](CO)[C@@H](O)[C@H](O)[C@H]1O [n-octyl-β-D-thioglucopyranoside]
- lysis performance [2]: good lysis performance
- performance as lysis reagent [3]: performed well

Compound: N-dodecanoyl sucrose
- lysis of uninduced BL21 Star cells by PAGE (FIG. 1) [2]: did not lyse the cells efficiently

Compound: NP-40
- lysis of bacterial cells [2]: not be very efficient

Compound: Triton X-100
- lysis of bacterial cells [2]: not be very efficient
